Results from ChEMBL document CHEMBL6078728 (Bioorg Med Chem, 2025).
Active and inactive are the calls of the source. The calls are words filed in the database; no cut-off is given here.

Legend:
[1] = Inhibition of NLRP3 inflammasome activation in LPS/ATP stimulated human THP-1 cells assessed as inhibition of IL-1beta production pretreated with compound for 15 mins followed by LPS and ATP addition and measured after 2 hrs by ELISA; assay type: cell-based
[2] = Inhibition of NLRP3 inflammasome activation in LPS stimulated human THP-1 cells assessed as inhibition of TNF-alpha production pretreated with compound for 15 mins followed by LPS and ATP addition and measured after 2 hrs by ELISA; assay type: cell-based
[3] = Ratio of drug concentration in brain to plasma in male Sprague-Dawley rat at 5 mg/kg, ip measured after 1 hr by LC-MS/MS analysis; assay type: ADME, organism-based; details: brain and plasma, read-out: BPR
[4] = Drug concentration in male Sprague-Dawley rat plasma at 5 mg/kg, ip measured after 1 hr by LC-MS/MS analysis; assay type: ADME, organism-based
[5] = tested on: THP-1; assay: Antiinflammatory activity against LPS/ATP stimulated human THP-1 cells assessed as ASC speck formation by DAPI staining based cell analyzer; assay type: functional
[6] = Drug concentration in male Sprague-Dawley rat brain at 5 mg/kg, ip measured after 1 hr by LC-MS/MS analysis; assay type: ADME, organism-based; details: read-out: Ct
[7] = target: NACHT, LRR and PYD domains-containing protein 3 (Rattus norvegicus) (UniProt D4A523); assay: In vivo inhibition of NLRP3 activation in LPS-induced male wistar rat model assessed as inhibition of IL-1 beta production in CSF at 1 mg/kg, po measured after 30 mins by Western blotting analysis; assay type: functional, organism-based
Chain of NACHT, LRR and PYD domains-containing protein 3 (Rattus norvegicus) (D4A523 whole entry, the tested form may be a part): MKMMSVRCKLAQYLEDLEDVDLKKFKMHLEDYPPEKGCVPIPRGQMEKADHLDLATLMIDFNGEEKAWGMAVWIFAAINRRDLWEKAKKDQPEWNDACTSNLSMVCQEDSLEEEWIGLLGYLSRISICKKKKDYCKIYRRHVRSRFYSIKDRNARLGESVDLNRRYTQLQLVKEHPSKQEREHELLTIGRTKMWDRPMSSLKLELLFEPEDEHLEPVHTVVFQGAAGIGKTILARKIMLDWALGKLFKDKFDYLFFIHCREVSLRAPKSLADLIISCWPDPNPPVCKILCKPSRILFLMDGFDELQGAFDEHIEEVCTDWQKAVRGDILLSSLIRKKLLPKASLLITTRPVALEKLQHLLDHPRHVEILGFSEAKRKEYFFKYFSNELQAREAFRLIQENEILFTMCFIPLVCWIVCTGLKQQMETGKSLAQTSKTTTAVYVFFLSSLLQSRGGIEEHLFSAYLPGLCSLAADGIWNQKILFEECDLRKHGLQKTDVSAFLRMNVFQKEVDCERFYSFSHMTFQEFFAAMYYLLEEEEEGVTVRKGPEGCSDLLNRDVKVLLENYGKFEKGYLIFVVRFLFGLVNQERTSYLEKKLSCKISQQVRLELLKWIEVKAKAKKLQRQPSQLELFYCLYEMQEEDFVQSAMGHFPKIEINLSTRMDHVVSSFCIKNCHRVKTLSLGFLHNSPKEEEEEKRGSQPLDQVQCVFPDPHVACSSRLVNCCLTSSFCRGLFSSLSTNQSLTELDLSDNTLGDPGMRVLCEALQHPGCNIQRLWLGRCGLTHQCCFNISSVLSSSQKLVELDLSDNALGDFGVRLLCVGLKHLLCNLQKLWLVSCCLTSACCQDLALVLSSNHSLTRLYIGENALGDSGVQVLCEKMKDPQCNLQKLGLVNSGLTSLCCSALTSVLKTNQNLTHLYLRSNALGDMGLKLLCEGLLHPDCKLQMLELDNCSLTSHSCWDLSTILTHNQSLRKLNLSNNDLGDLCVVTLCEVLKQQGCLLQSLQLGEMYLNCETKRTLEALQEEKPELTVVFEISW

[8] = Intrinsic clearance in rat liver microsomes at 0.2 uM in presence of NADPH incubated for 30 mins by LC-MS/MS analysis; assay type: ADME, Microsome; details: read-out: CLH
[9] = Intrinsic clearance in human liver microsomes at 0.2 uM in presence of NADPH incubated for 30 mins by LC-MS/MS analysis; assay type: ADME, Microsome; details: read-out: CLH
[10] = tested on: Mus musculus; assay: Improvement of motor dysfunction in pathogenic alpha-synuclein induced male C57BL/6J mouse assessed as reduction in number of falls at 10 mg/kg, po administered once a day for 4 weeks and measured 1 hr after last administration by hanging wire test; assay type: functional, organism-based
[11] = Ratio of drug concentration in brain to plasma in male Sprague-Dawley rat at 10 mg/kg, po measured after 1 hr by LC-MS/MS analysis; assay type: ADME, organism-based; details: brain and plasma, read-out: BPR
[12] = target: NACHT, LRR and PYD domains-containing protein 3 (Rattus norvegicus) (UniProt D4A523); assay: In vivo inhibition of NLRP3 activation in LPS-induced male wistar rat model assessed as inhibition of IL-1 beta production in CSF at 0.3 mg/kg, po measured after 30 mins by Western blotting analysis; assay type: functional, organism-based
[13] = tested on: Mus musculus; assay: Improvement of motor dysfunction in pathogenic alpha-synuclein induced male C57BL/6J mouse assessed as reduction in number of falls at 1 mg/kg, po administered once a day for 4 weeks and measured 1 hr after last administration by hanging wire test; assay type: functional, organism-based
[14] = Inhibition of NLRP3 inflammasome activation in alpha-synuclein pre-formed fibril stimulated human THP-1 cells assessed as inhibition of IL-1beta production preincubated with compound for 15 mins followed by alpha-synuclein pre-formed fibril addition and measured after 24 hrs by ELISA; assay type: cell-based
[15] = target: NACHT, LRR and PYD domains-containing protein 3 (Rattus norvegicus) (UniProt D4A523); assay: In vivo inhibition of NLRP3 activation in LPS-induced male wistar rat model assessed as inhibition of IL-1 beta production in CSF at 3 mg/kg, po measured after 30 mins by Western blotting analysis; assay type: functional, organism-based
[16] = Inhibition of NLRP3 inflammasome activation in LPS primed mouse BMDM cells assessed as inhibition of IL-1beta production preincubated with compound for 1 hr followed by nigericin stimulation and measured after 1 hr by ELISA method; assay type: cell-based
[17] = target: NACHT, LRR and PYD domains-containing protein 3 (Rattus norvegicus) (UniProt D4A523); details: wistar, dose <= 30.0 mg/kg, route po, time 30.0 min
[18] = Ratio of drug concentration in brain to plasma in male Sprague-Dawley rat at 10 mg/kg, ip measured after 1 hr by LC-MS/MS analysis; assay type: ADME, organism-based; details: brain and plasma, read-out: BPR
[19] = Drug concentration in male Sprague-Dawley rat brain at 10 mg/kg, ip measured after 1 hr by LC-MS/MS analysis; assay type: ADME, organism-based; details: read-out: Ct
[20] = Drug concentration in male Sprague-Dawley rat plasma at 10 mg/kg, ip measured after 1 hr by LC-MS/MS analysis; assay type: ADME, organism-based

Row | Structure (SMILES) | IC50 [1] [µM] | further results
1 | CC(C)(CO)CNc1nnc(-c2ccc(C(F)(F)F)cc2)c2ccccc12 | 1 | –
2 | Cc1ccc(-c2nnc(NCCCO)c3ccccc23)cc1 | 2 | IC50 [2]: > 10 µM; Kp at 1 h [3]: 0.33; concentration at 1 h [4]: 360 ng/mL; IC50 [5]: 3.1 µM; concentration at 1 h [6]: 117 ng/g
3 | OCCCNc1nnc(-c2ccc(C(F)(F)F)cc2F)c2ccccc12 | 0.51 | –
4 | CC(O)CCNc1nnc(-c2ccc(C(F)(F)F)cc2)c2ccccc12 (stereo not given) | 1.2 | –
5 | Cc1c(N[C@@H]2CCCC[C@H]2O)nnc(-c2ccc(C(F)(F)F)cc2O)c1C | – | inhibition [7]: Active; microsomal CLint at 0.2 µM [8]: < 20 µL/min/mg; IC50 [2]: > 10 µM; microsomal CLint at 0.2 µM [9]: < 20 µL/min/mg; IC50 [5]: 0.0057 µM; Activity [10]: Active; Kp at 1 h [11]: 0.94; inhibition [12]: Active; Activity [13]: Active; IC50 [14]: 0.0063 µM; inhibition [15]: Active
6 | Cc1c(N[C@H]2CCC[C@@H]2O)nnc(-c2ccc(C(F)(F)F)cc2O)c1C | 0.65 | –
7 | Cc1c(NC[C@@H](C)O)nnc(-c2ccc(C(F)(F)F)cc2C(F)F)c1C | 0.59 | –
8 | OCCCNc1nnc(-c2cccc(C(F)(F)F)c2)c2ccccc12 | 17 | –
9 | OCCCNc1nnc(-c2ccc(C(F)(F)F)c(F)c2)c2ccccc12 | 0.98 | –
10 | OCCCNc1nnc(-c2ccccc2C(F)(F)F)c2ccccc12 | 5.2 | –
11 | COCCCNc1nnc(-c2ccc(C(F)(F)F)cc2)c2ccccc12 | 1.7 | –
12 | Cc1cc(C(F)(F)F)ccc1-c1nnc(NCCCO)c2ccccc12 | 0.49 | –
13 | CC(C)(O)c1coc(S(=O)(=O)NC(=O)Nc2c3c(cc4c2CCC4)CCC3)c1 | – | IC50 [16]: 0.0075 µM; inhibition [17]: inactive; Kp at 1 h [18]: 0.01; concentration at 1 h [19]: 23.1 ng/g; concentration at 1 h [20]: 2320 ng/mL
14 | OCCNc1nnc(-c2ccc(C(F)(F)F)cc2)c2ccccc12 | 0.61 | –
15 | CC(CCO)Nc1nnc(-c2ccc(C(F)(F)F)cc2)c2ccccc12 (stereo not given) | 3.5 | –
16 | OCCCNc1nnc(-c2ccc(C(F)(F)F)cc2)c2ccccc12 | 0.37 | –

More lines, in order of falling IC50 [1], values ahead:

Row | IC50 [1] [µM] | Structure (SMILES) | further results
17 | 0.35 | OCCCNc1nnc(-c2ccc(C(F)(F)F)cc2Cl)c2ccccc12 | –
18 | 0.23 | C[C@H](O)CNc1nnc(-c2ccc(C(F)(F)F)cc2)c2ccccc12 | –
19 | 0.23 | CC(CO)CNc1nnc(-c2ccc(C(F)(F)F)cc2)c2ccccc12 (stereo not given) | –
20 | 0.21 | Cc1c(NC[C@@H](C)O)nnc(-c2ccc(C(F)(F)F)cc2C(F)(F)F)c1C | –
21 | 0.2 | Cc1cc(NC[C@@H](C)O)nnc1-c1ccc(C(F)(F)F)cc1C(F)(F)F | –
22 | 0.16 | Cc1cc(-c2ccc(C(F)(F)F)cc2O)nnc1NC[C@@H](C)O | –
23 | 0.15 | C[C@@H](O)CNc1ccc(-c2ccc(C(F)(F)F)cc2C(F)(F)F)nn1 | –
24 | 0.14 | C[C@@H](O)CNc1nnc(-c2ccc(C(F)(F)F)cc2)c2ccccc12 | –
25 | 0.11 | OCCCNc1nnc(-c2ccc(C(F)(F)F)cc2C(F)(F)F)c2ccccc12 | –
26 | 0.09 | Cc1cc(-c2ccc(C(F)(F)F)cc2C(F)(F)F)nnc1NC[C@@H](C)O | –
27 | 0.057 | C[C@@H](O)CNc1nnc(-c2ccc(C(F)(F)F)cc2C(F)(F)F)c2ccccc12 | –
28 | 0.028 | Cc1c(N[C@@H]2CCC[C@H]2O)nnc(-c2ccc(C(F)(F)F)cc2O)c1C | –
29 | 0.027 | Cc1c(N[C@H]2CCC[C@H]2O)nnc(-c2ccc(C(F)(F)F)cc2O)c1C | –
30 | 0.017 | Cc1cc(NC[C@@H](C)O)nnc1-c1ccc(C(F)(F)F)cc1O | –
31 | 0.014 | Cc1c(NC[C@@H](C)O)nnc(-c2ccc(C(F)(F)F)cc2O)c1C | –
